Source: PubChem BioAssay AID1963870 (Molecular Pharmacology Branch, DTP, NCI, 2024)

Tested on: 292921-168-R-J2-PDC KRAS tumor spheroid viability
Assay: Anticancer human tumor 292921-168-R-J2-PDC patient-derived pancreatic carcinoma cell line growth inhibition [KRAS2]
Conditions: spheroids with HUVEC and MSC; for viability, T/C: stronger effect = lower value
From the text: Multicellular complex tumor spheroid response to RAS pathway inhibitors in combination with a targeted agents in patient-derived cell lines with oncogenic KRAS variants from multiple cancer types
A high-throughput screen of multi-cell type tumor spheroids was designed to identify active combinations of targeted small molecules and KRAS pathway inhibitors. Complex spheroids include a stromal component modeled by human endothelial cells (HUVEC) and fibroblasts modeled by human mesenchymal stem cells (MSCs). The concentration ranges selected for each drug and investigational agent were based upon clinically achievable concentrations if the clinical Cmax of the agent was known.
Compounds. The drugs and investigational agents: BI-3406 (NSC825286), BAY-293 (NSC824723), batoprotafib (TNO155; NSC825523), sotorasib (AMG 510; NSC818433), MRTX1257 (NSC819558), elimusertib (BAY 1895344; NSC800525), molibresib (GSK525762; NSC774829), temuterkib (LY3214996; NSC803410), venetoclax (NSC766270), alisertib (NSC759677), olaparib (NSC753686), talazoparib (NSC767125), erdafitinib (NSC781556), ipatasertib (NSC767898), cabozantinib (NSC761068), nintedanib (NSC756659), abemaciclib (NSC768073), docetaxel (NSC628503), trametinib (NSC758246), and sapanisertib (NSC764658) were obtained from the National Cancer Institute (NCI) Developmental Therapeutics Program Chemical Repository. The FDA-approved anticancer drug set is available from the Developmental Therapeutics Program. […] The stock solutions were prepared in dimethyl sulfoxide (DMSO, Sigma-Aldrich, St. Louis, MO, cat. D2650) at 800-fold the tested concentration and stored at -70 degrees C prior to their use. All drugs and investigational agents were tested over a range starting from a high concentration at or near the clinical Cmax and decreasing in half-log increments. If the clinical Cmax for an agent had not been determined, the highest concentration tested was 10 microM.
Cell Culture. All cells were maintained in an incubator at 37 degrees C and 5% CO2 with 95% humidity. The PDC lines were cultured according to standard operating procedures established by the NCI PDMR (https://pdmr.cancer.gov/sops/default.htm). Briefly, all PDCs were thawed and cultured in Matrigel-coated flasks prepared with a working solution of 1X Ham's F-12 nutrient mix, without supplementation (Invitrogen, Waltham, MA, cat. 11765054), 100 U/mL penicillin-streptomycin (Invitrogen, cat. 15140122), and 2.5% Matrigel (Corning Inc., Corning, NY, cat. 354248) for the first three passages. All PDCs were cultured in complete DMEM/F-12 media containing advanced DMEM/F-12 (Invitrogen, cat. 12634028), 4.9% defined fetal bovine serum, heat inactivated (HyClone Laboratories Inc., Logan, UT, cat. SH30070.03HI), 389 ng/mL hydrocortisone (Sigma-Aldrich, cat. H4001), 9.7 ng/mL human EGF recombinant protein (Invitrogen, cat. PHG0313), 23.4 microg/mL adenine (Sigma-Aldrich, cat. A2786), 97.3 U/mL penicillin-streptomycin (Invitrogen, cat. 15140122), 1.9 mM L-glutamine (Invitrogen, cat. 25030081), and 9.7 microM Y-27632 dihydrochloride (Tocris Bioscience, Bristol, United Kingdom, cat. 1254). The PDCs were cultured in complete DMEM/F12 media without 9.7 microM Y-27632 dihydrochloride for at least two passages prior to the screen. The established cell line HOP-62 was cultured in RPMI 1640 medium, HEPES (Invitrogen, cat. 22400105) with 10% defined fetal bovine serum (HyClone Laboratories Inc., cat. SH30070.03) and 2 mM L-glutamine (Invitrogen, cat. 25030081). The pooled donor HUVEC were cultured in endothelial cell growth medium 2 (PromoCell, Heidelberg, Germany, cat. C-22011) and the hMSC were cultured in mesenchymal stem cell growth medium 2 (PromoCell, cat. C-28009). For all experiments, HUVEC and hMSC were used at passages </=5, while the malignant cell lines were used at passages </=15. […]

[1] = curve of first compound, second compound 0.1 µM
[2] = curve of first compound, second compound 0.316 µM
[3] = curve of first compound, second compound 1 µM
[4] = curve of first compound, second compound 3.16 µM
[5] = curve of first compound, second compound 10 µM
[6] = second compound 0.1 µM, first compound 0.0316 µM
[7] = second compound 0.316 µM, first compound 0.0316 µM
[8] = second compound 1 µM, first compound 0.0316 µM
[9] = second compound 3.16 µM, first compound 0.0316 µM
[10] = second compound 10 µM, first compound 0.0316 µM
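Note: drug exposure lasted seven days after spheroids formed for three days.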
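Throughout, for viability, T/C: percent of DMSO vehicle control viability which is 100%.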

O=C(c1cc(Cc2n[nH]c(=O)c3ccccc23)ccc1F)N1CCN(C(=O)C2CC2)CC1 + COc1cc2nc(C)nc(NC(C)c3cc(N)cc(C(F)(F)F)c3)c2cc1OC1CCOC1
IC50 [1]: > 10 µM
IC50 [2]: 9.62 µM
IC50 [3]: 9.77 µM
IC50 [4]: 6.44 µM
IC50 [5]: 9.86 µM
viability, T/C [6]: 111%
viability, T/C (second compound 0.1 µM, first compound 0.1 µM): 119%
viability, T/C (second compound 0.1 µM, first compound 0.316 µM): 108%
viability, T/C (second compound 0.1 µM, first compound 1 µM): 113%
viability, T/C (second compound 0.1 µM, first compound 3.16 µM): 99.8%
viability, T/C (second compound 0.1 µM, first compound 10 µM): 52.1%
viability, T/C [7]: 111%
viability, T/C (second compound 0.316 µM, first compound 0.1 µM): 105%
viability, T/C (second compound 0.316 µM, first compound 0.316 µM): 98.2%
viability, T/C (second compound 0.316 µM, first compound 1 µM): 102%
viability, T/C (second compound 0.316 µM, first compound 3.16 µM): 92.1%
viability, T/C (second compound 0.316 µM, first compound 10 µM): 48%
viability, T/C [8]: 130%
viability, T/C (second compound 1 µM, first compound 0.1 µM): 116%
viability, T/C (second compound 1 µM, first compound 0.316 µM): 118%
viability, T/C (second compound 1 µM, first compound 1 µM): 119%
viability, T/C (second compound 1 µM, first compound 3.16 µM): 88.7%
viability, T/C (second compound 1 µM, first compound 10 µM): 49.2%
viability, T/C [9]: 86.7%
viability, T/C (second compound 3.16 µM, first compound 0.1 µM): 82.5%
viability, T/C (second compound 3.16 µM, first compound 0.316 µM): 76%
viability, T/C (second compound 3.16 µM, first compound 1 µM): 75.7%
viability, T/C (second compound 3.16 µM, first compound 3.16 µM): 63.2%
viability, T/C (second compound 3.16 µM, first compound 10 µM): 41.6%
viability, T/C [10]: 83.8%
viability, T/C (second compound 10 µM, first compound 0.1 µM): 84.3%
viability, T/C (second compound 10 µM, first compound 0.316 µM): 77.9%
viability, T/C (second compound 10 µM, first compound 1 µM): 73.5%
viability, T/C (second compound 10 µM, first compound 3.16 µM): 85%
viability, T/C (second compound 10 µM, first compound 10 µM): 49.8%

CC(=O)Nc1cccc(-n2c(=O)n(C3CC3)c(=O)c3c(Nc4ccc(I)cc4F)n(C)c(=O)c(C)c32)c1 + CC1OCC2(CCN(c3cnc(Sc4ccnc(N)c4Cl)c(N)n3)CC2)C1N
IC50 [1]: < 0.0001 µM
IC50 [2]: < 0.0001 µM
IC50 [3]: < 0.0001 µM
IC50 [4]: < 0.0001 µM
IC50 [5]: < 0.0001 µM
viability, T/C (second compound 0.1 µM, first compound 0.0001 µM): 48.8%
viability, T/C (second compound 0.1 µM, first compound 0.000316 µM): 28.9%
viability, T/C (second compound 0.1 µM, first compound 0.001 µM): 18.2%
viability, T/C (second compound 0.1 µM, first compound 0.00316 µM): 14.6%
viability, T/C (second compound 0.1 µM, first compound 0.01 µM): 10.5%
viability, T/C [6]: 8.15%
viability, T/C (second compound 0.316 µM, first compound 0.0001 µM): 35.4%
viability, T/C (second compound 0.316 µM, first compound 0.000316 µM): 27.8%
viability, T/C (second compound 0.316 µM, first compound 0.001 µM): 15.6%
viability, T/C (second compound 0.316 µM, first compound 0.00316 µM): 11.9%
viability, T/C (second compound 0.316 µM, first compound 0.01 µM): 9.03%
viability, T/C [7]: 7.3%
viability, T/C (second compound 1 µM, first compound 0.0001 µM): 30.1%
viability, T/C (second compound 1 µM, first compound 0.000316 µM): 17.7%
viability, T/C (second compound 1 µM, first compound 0.001 µM): 13.1%
viability, T/C (second compound 1 µM, first compound 0.00316 µM): 9.44%
viability, T/C (second compound 1 µM, first compound 0.01 µM): 7.15%
viability, T/C [8]: 6.35%
viability, T/C (second compound 3.16 µM, first compound 0.0001 µM): 22.9%
viability, T/C (second compound 3.16 µM, first compound 0.000316 µM): 15.7%
viability, T/C (second compound 3.16 µM, first compound 0.001 µM): 11.9%
viability, T/C (second compound 3.16 µM, first compound 0.00316 µM): 8.12%
viability, T/C (second compound 3.16 µM, first compound 0.01 µM): 7.15%
viability, T/C [9]: 5.35%
viability, T/C (second compound 10 µM, first compound 0.0001 µM): 18.3%
viability, T/C (second compound 10 µM, first compound 0.000316 µM): 14.1%
viability, T/C (second compound 10 µM, first compound 0.001 µM): 9.59%
viability, T/C (second compound 10 µM, first compound 0.00316 µM): 7.02%
viability, T/C (second compound 10 µM, first compound 0.01 µM): 5.62%
viability, T/C [10]: 4.49%

COc1cc(OC)cc(N(CCNC(C)C)c2ccc3ncc(-c4cnn(C)c4)nc3c2)c1
viability, T/C (compound 0.0316 µM): 72.9% [middle of 5 runs]
viability, T/C (compound 0.1 µM): 77.1% [middle of 5 runs]
viability, T/C (compound 0.316 µM): 77.7% [middle of 5 runs]
viability, T/C (compound 1 µM): 69.4% [middle of 5 runs]
viability, T/C (compound 3.16 µM): 45.9% [middle of 5 runs]
viability, T/C (compound 10 µM): 0.9% [middle of 5 runs]
IC50 (curve of compound): 2.48 µM [middle of 5 runs]
